Results: ChEMBL document CHEMBL4507262, “Data for DCP probe A-1596586” (2021)

Experiments:
[1] = system: Tyrosine-protein kinase ABL1 (Homo sapiens), P00519 [E255K]; settings: Compound concentration 1000.0 nM
[2] = molecular target: 5'-AMP-activated protein kinase catalytic subunit alpha-1 (Homo sapiens) (UniProt Q13131); settings: Compound concentration 1000.0 nM
[3] = molecular target: BMP-2-inducible protein kinase (Homo sapiens) (UniProt Q9NSY1); settings: Compound concentration 1000.0 nM
[4] = molecular target: Tyrosine-protein kinase Blk (Homo sapiens) (UniProt P51451); settings: Compound concentration 1000.0 nM
[5] = molecular target: Calcium/calmodulin-dependent protein kinase type 1B (Homo sapiens) (UniProt Q6P2M8); settings: Compound concentration 1000.0 nM
[6] = molecular target: Cyclin-dependent kinase 7 (Homo sapiens) (UniProt P50613); settings: Compound concentration 1000.0 nM
[7] = molecular target: Cyclin-dependent kinase 8 (Homo sapiens) (UniProt P49336); settings: Compound concentration 1000.0 nM
[8] = molecular target: Casein kinase I isoform gamma-2 (Homo sapiens) (UniProt P78368); settings: Compound concentration 1000.0 nM
[9] = molecular target: Casein kinase II subunit alpha (Homo sapiens) (UniProt P68400); settings: Compound concentration 1000.0 nM
[10] = molecular target: Megakaryocyte-associated tyrosine-protein kinase (Homo sapiens) (UniProt P42679); settings: Compound concentration 1000.0 nM
[11] = molecular target: Discoidin domain-containing receptor 2 (Homo sapiens) (UniProt Q16832); settings: Compound concentration 1000.0 nM
[12] = molecular target: Serine/threonine-protein kinase 17A (Homo sapiens) (UniProt Q9UEE5); settings: Compound concentration 1000.0 nM
[13] = molecular target: Serine/threonine-protein kinase 17B (Homo sapiens) (UniProt O94768); settings: Compound concentration 1000.0 nM
[14] = molecular target: Dual specificity tyrosine-phosphorylation-regulated kinase 1A (Homo sapiens) (UniProt Q13627); settings: Compound concentration 1000.0 nM
[15] = system: Epidermal growth factor receptor (Homo sapiens), P00533 [G719S]; settings: Compound concentration 1000.0 nM
[16] = system: Epidermal growth factor receptor (Homo sapiens), P00533 [L861Q]; settings: Compound concentration 1000.0 nM
[17] = molecular target: Eukaryotic translation initiation factor 2-alpha kinase 1 (Homo sapiens) (UniProt Q9BQI3); settings: Compound concentration 1000.0 nM
[18] = molecular target: Ephrin type-A receptor 6 (Homo sapiens) (UniProt Q9UF33); settings: Compound concentration 1000.0 nM
[19] = system: Receptor-type tyrosine-protein kinase FLT3 (Homo sapiens), P36888 [R834Q]; settings: Compound concentration 1000.0 nM
[20] = molecular target: Tyrosine-protein kinase FRK (Homo sapiens) (UniProt P42685); settings: Compound concentration 1000.0 nM
[21] = molecular target: Rhodopsin kinase GRK1 (Homo sapiens) (UniProt Q15835); settings: Compound concentration 1000.0 nM
[22] = system: Mast/stem cell growth factor receptor Kit (Homo sapiens), P10721 [V559D,T670I]; settings: Compound concentration 1000.0 nM
[23] = molecular target: Tyrosine-protein kinase Lck (Homo sapiens) (UniProt P06239); settings: Compound concentration 1000.0 nM
[24] = molecular target: Mitogen-activated protein kinase kinase kinase 3 (Homo sapiens) (UniProt Q99759); settings: Compound concentration 1000.0 nM
[25] = molecular target: MAP kinase-activated protein kinase 5 (Homo sapiens) (UniProt Q8IW41); settings: Compound concentration 1000.0 nM
[26] = molecular target: Serine/threonine-protein kinase 4 (Homo sapiens) (UniProt Q13043); settings: Compound concentration 1000.0 nM
[27] = molecular target: Serine/threonine-protein kinase NIM1 (Homo sapiens) (UniProt Q8IY84); settings: Compound concentration 1000.0 nM
[28] = molecular target: Cyclin-dependent kinase 17 (Homo sapiens) (UniProt Q00537); settings: Compound concentration 1000.0 nM
[29] = molecular target: Cyclin-dependent kinase 2 homolog (Plasmodium falciparum (isolate 3D7)) (UniProt P61075); settings: Compound concentration 1000.0 nM
[30] = molecular target: Phosphorylase b kinase gamma catalytic chain, skeletal muscle/heart isoform (Homo sapiens) (UniProt Q16816); settings: Compound concentration 1000.0 nM
[31] = system: Phosphatidylinositol 4,5-bisphosphate 3-kinase catalytic subunit alpha isoform (Homo sapiens), P42336 [E545K]; settings: Compound concentration 1000.0 nM
[32] = system: Phosphatidylinositol 4,5-bisphosphate 3-kinase catalytic subunit alpha isoform (Homo sapiens), P42336 [I800L]; settings: Compound concentration 1000.0 nM
[33] = molecular target: Serine/threonine-protein kinase D2 (Homo sapiens) (UniProt Q9BZL6); settings: Compound concentration 1000.0 nM
[34] = molecular target: Receptor-interacting serine/threonine-protein kinase 2 (Homo sapiens) (UniProt O43353); settings: Compound concentration 1000.0 nM
[35] = molecular target: SRSF protein kinase 3 (Homo sapiens) (UniProt Q9UPE1); settings: Compound concentration 1000.0 nM
[36] = molecular target: STE20/SPS1-related proline-alanine-rich protein kinase (Homo sapiens) (UniProt Q9UEW8); settings: Compound concentration 1000.0 nM
[37] = molecular target: Serine/threonine-protein kinase TAO1 (Homo sapiens) (UniProt Q7L7X3); settings: Compound concentration 1000.0 nM
[38] = molecular target: Tyrosine-protein kinase Tec (Homo sapiens) (UniProt P42680); settings: Compound concentration 1000.0 nM
[39] = molecular target: Testis-specific serine/threonine-protein kinase 1 (Homo sapiens) (UniProt Q9BXA7); settings: Compound concentration 1000.0 nM
[40] = molecular target: Non-receptor tyrosine-protein kinase TYK2 (Homo sapiens) (UniProt P29597); settings: Compound concentration 1000.0 nM
[41] = molecular target: Mitogen-activated protein kinase kinase kinase 19 (Homo sapiens) (UniProt Q56UN5); settings: Compound concentration 1000.0 nM
[42] = molecular target: Mitogen-activated protein kinase kinase kinase 20 (Homo sapiens) (UniProt Q9NYL2); settings: Compound concentration 1000.0 nM
[43] = molecular target: GABA-A receptor; anion channel (Rattus norvegicus) (UniProt O09028+P15431+P18506+P18508+P19969+P20236+P23574+P23576+P28471+P28473+P30191+P62813+P63079+P63138+Q91ZM7+Q9ES14); settings: Compound concentration 10.0 uM

Chain of Phosphatidylinositol 4,5-bisphosphate 3-kinase catalytic subunit alpha isoform (Homo sapiens), P42336 [I800L] (P42336 whole entry I800L, canonical isoform): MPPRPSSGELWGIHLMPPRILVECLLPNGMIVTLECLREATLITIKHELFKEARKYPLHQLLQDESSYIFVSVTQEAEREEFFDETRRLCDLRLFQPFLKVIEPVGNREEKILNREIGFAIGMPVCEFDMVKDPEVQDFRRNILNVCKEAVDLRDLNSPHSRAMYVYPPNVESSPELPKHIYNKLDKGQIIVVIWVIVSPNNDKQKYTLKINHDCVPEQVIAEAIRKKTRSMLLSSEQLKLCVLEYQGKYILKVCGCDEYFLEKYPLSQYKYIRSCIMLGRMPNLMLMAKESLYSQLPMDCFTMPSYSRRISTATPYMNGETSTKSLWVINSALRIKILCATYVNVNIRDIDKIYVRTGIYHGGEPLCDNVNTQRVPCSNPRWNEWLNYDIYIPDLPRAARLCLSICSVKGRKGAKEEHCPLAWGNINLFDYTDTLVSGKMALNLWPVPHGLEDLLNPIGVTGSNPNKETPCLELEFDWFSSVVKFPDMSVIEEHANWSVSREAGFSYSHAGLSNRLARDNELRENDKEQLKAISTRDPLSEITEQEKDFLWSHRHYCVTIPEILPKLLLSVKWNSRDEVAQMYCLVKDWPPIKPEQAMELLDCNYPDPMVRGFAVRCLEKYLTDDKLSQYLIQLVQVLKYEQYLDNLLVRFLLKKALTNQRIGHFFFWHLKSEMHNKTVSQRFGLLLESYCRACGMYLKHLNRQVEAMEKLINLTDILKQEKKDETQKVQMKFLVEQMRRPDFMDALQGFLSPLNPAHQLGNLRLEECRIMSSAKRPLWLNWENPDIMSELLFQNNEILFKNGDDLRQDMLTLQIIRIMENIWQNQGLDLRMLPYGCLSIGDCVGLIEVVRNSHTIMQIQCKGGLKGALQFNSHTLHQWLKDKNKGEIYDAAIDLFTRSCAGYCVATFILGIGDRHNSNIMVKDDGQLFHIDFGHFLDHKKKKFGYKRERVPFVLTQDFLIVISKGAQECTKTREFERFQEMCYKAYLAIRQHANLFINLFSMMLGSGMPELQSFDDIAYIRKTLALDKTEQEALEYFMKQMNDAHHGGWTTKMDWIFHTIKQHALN
Chain of 5'-AMP-activated protein kinase catalytic subunit alpha-1 (Homo sapiens) (Q13131 whole entry, looked up): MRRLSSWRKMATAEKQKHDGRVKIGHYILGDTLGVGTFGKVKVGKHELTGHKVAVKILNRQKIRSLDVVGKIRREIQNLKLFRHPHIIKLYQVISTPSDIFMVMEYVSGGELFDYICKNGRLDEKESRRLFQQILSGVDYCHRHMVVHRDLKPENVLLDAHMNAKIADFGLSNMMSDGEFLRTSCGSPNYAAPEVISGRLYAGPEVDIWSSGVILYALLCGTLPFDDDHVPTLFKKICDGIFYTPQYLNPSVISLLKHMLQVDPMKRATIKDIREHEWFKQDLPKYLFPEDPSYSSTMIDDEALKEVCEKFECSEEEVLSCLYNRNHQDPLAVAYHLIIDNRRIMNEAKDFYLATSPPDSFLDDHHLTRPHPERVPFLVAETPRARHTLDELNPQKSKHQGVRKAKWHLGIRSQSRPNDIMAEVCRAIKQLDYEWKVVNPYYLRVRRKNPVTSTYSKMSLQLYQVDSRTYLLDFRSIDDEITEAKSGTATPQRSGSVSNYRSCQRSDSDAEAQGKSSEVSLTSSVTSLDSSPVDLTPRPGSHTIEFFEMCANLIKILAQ
Chain of Tyrosine-protein kinase ABL1 (Homo sapiens), P00519 [E255K] (P00519 whole entry E255K): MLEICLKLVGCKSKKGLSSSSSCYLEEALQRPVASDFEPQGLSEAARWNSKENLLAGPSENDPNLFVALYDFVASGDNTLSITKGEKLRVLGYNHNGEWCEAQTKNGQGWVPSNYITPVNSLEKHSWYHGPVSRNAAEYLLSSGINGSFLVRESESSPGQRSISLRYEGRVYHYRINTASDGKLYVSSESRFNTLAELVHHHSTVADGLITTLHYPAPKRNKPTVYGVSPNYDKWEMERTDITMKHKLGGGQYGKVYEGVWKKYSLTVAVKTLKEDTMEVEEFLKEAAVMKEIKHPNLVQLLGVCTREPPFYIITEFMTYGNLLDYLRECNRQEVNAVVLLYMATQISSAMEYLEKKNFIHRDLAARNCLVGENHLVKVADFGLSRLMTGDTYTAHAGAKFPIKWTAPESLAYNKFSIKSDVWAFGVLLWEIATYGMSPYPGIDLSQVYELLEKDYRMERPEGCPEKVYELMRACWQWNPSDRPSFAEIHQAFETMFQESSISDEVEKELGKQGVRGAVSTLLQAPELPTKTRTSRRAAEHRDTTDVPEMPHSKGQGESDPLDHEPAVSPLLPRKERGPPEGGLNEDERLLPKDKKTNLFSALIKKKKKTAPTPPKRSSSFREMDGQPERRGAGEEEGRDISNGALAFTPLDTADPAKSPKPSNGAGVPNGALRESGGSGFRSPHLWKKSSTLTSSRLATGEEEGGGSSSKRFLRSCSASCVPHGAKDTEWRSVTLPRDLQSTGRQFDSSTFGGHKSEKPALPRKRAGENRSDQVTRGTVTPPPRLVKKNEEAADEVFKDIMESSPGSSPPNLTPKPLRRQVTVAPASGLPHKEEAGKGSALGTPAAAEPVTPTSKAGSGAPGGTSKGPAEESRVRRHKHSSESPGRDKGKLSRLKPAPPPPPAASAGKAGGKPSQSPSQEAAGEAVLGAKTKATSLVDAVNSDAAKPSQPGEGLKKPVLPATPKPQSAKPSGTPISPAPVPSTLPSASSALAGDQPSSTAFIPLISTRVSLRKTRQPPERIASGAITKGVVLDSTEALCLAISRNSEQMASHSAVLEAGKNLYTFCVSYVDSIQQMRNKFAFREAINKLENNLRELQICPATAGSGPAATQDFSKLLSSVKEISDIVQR
Chain of Cyclin-dependent kinase 7 (Homo sapiens) (P50613 whole entry): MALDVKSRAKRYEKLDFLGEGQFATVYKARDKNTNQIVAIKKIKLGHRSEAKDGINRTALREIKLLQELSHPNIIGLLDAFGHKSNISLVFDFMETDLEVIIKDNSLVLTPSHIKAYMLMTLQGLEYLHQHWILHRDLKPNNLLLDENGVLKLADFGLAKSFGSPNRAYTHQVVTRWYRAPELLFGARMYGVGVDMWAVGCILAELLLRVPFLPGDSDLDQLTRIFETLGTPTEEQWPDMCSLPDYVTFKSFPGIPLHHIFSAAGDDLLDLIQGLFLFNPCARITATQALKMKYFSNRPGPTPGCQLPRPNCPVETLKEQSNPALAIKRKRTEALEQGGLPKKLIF
Chain of Testis-specific serine/threonine-protein kinase 1 (Homo sapiens) (Q9BXA7 whole entry): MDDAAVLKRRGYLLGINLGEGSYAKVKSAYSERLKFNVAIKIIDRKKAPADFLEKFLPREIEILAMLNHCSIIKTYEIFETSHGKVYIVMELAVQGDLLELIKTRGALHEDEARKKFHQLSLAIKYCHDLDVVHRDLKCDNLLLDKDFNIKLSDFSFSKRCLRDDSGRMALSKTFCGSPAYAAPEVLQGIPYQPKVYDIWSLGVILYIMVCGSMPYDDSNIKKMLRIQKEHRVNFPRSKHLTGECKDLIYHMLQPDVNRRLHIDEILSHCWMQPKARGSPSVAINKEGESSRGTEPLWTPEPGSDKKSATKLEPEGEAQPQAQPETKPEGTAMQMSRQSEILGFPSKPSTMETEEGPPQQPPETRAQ
Chain of Ephrin type-A receptor 6 (Homo sapiens) (Q9UF33 whole entry): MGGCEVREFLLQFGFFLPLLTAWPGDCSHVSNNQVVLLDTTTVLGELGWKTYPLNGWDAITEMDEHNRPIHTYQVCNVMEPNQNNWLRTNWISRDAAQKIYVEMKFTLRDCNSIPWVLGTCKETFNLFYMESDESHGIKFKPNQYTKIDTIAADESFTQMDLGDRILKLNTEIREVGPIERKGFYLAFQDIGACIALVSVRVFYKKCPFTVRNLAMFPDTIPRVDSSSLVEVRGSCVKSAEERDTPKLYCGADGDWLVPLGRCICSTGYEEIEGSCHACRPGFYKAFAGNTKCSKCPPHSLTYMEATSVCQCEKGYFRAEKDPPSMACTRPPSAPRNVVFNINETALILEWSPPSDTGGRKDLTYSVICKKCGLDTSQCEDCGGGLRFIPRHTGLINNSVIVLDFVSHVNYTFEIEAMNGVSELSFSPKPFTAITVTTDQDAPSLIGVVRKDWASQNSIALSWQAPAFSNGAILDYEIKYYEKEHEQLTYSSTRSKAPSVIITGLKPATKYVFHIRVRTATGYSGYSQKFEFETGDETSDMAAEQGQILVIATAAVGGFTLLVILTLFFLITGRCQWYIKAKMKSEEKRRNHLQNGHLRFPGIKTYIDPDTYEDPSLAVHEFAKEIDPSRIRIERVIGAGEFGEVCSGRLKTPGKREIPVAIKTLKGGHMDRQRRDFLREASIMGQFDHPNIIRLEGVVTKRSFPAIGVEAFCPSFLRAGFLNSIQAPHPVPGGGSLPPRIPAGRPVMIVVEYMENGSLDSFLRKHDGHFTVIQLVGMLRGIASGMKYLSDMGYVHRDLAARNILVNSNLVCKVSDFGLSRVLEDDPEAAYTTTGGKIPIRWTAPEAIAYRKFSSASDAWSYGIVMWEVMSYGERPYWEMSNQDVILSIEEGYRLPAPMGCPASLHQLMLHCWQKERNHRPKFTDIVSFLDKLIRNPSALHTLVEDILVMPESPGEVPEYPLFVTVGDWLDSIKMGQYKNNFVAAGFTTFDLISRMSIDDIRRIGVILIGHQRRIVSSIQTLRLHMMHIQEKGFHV
Chain of Phosphorylase b kinase gamma catalytic chain, skeletal muscle/heart isoform (Homo sapiens) (Q16816 whole entry, looked up, canonical isoform): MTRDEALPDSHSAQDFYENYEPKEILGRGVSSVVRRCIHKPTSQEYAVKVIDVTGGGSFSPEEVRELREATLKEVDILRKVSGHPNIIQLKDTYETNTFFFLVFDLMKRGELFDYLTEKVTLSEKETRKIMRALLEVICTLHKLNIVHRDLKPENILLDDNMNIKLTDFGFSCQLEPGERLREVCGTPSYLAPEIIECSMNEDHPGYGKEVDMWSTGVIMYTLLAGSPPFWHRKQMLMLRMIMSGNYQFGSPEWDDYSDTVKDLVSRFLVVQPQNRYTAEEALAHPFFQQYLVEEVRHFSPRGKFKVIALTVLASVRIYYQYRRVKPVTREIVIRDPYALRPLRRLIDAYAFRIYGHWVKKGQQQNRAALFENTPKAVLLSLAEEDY

COc1ccc2c(c1)O[C@@H](c1ccc(OC)c(OC)c1)C[C@H]2NC(=O)C1(c2ccc3c(c2)OC(F)(F)O3)CC1 [A-1596586]
inactive: residual activity [1] 80% | residual activity [2] 80% | residual activity [3] 100% | residual activity [4] 91% | residual activity [5] 100% | residual activity [6] 80% | residual activity [7] 100% | residual activity [8] 88% | residual activity [9] 94% | residual activity [10] 93% | residual activity [11] 98% | residual activity [12] 100% | residual activity [13] 100% | residual activity [14] 80% | residual activity [15] 91% | residual activity [16] 100% | residual activity [17] 98% | residual activity [18] 89% | residual activity [19] 100% | residual activity [20] 100% | residual activity [21] 95% | residual activity [22] 99% | residual activity [23] 100% | residual activity [24] 84% | residual activity [25] 76% | residual activity [26] 79% | residual activity [27] 94% | residual activity [28] 100% | residual activity [29] 84% | residual activity [30] 100% | residual activity [31] 77% | residual activity [32] 79% | residual activity [33] 100% | residual activity [34] 94% | residual activity [35] 100% | residual activity [36] 71% | residual activity [37] 93% | residual activity [38] 89% | residual activity [39] 100% | residual activity [40] 91% | residual activity [41] 83% | residual activity [42] 97% | inhibition [43] 2.64%

COc1ccc2c(c1)O[C@H](c1ccc(OC)c(OC)c1)C[C@@H]2NC(=O)C1(c2ccc3c(c2)OC(F)(F)O3)CC1 [A-1596584]
inactive: residual activity [1] 90% | residual activity [2] 100% | residual activity [3] 100% | residual activity [4] 100% | residual activity [5] 100% | residual activity [6] 85% | residual activity [7] 100% | residual activity [8] 95% | residual activity [9] 100% | residual activity [10] 100% | residual activity [11] 94% | residual activity [12] 100% | residual activity [13] 100% | residual activity [14] 100% | residual activity [15] 99% | residual activity [16] 100% | residual activity [17] 100% | residual activity [18] 100% | residual activity [19] 100% | residual activity [20] 100% | residual activity [21] 97% | residual activity [22] 100% | residual activity [23] 100% | residual activity [24] 87% | residual activity [25] 100% | residual activity [26] 95% | residual activity [27] 84% | residual activity [28] 100% | residual activity [29] 92% | residual activity [30] 100% | residual activity [31] 91% | residual activity [32] 97% | residual activity [33] 100% | residual activity [34] 100% | residual activity [35] 97% | residual activity [36] 100% | residual activity [37] 100% | residual activity [38] 100% | residual activity [39] 100% | residual activity [40] 100% | residual activity [41] 100% | residual activity [42] 97% | inhibition [43] 11.1%
